Test results as given in patent US20220257764A1, “USE OF DIKETONE COMPOUND IN PHOTODYNAMIC THERAPY OR DIAGNOSIS” (BEIJING WHOLESOMETECH CO., LTD., priority 2019, published 2022).
Read-outs that look alike come from different tables or passages of the source.

Assays:
[1] = tested on: Escherichia coli; assay: Inhibitory effect on bacteria (colony counting), under light and in the dark; format: cell-based; conditions: 60 mM
Experimental: A single Escherichia coli colony was transferred from a solid Luria Bertani (LB) agar plate to 5 ml liquid LB medium and incubated at 37° C. for 12 h. Bacteria were collected by centrifugation (7000 rpm, 1 min) and washed with PBS buffer three times. The supernatant was discarded, and the remaining Escherichia coli cells were resuspended in the PBS buffer. The bacterial suspension was adjusted to make its optical density (OD600) to 1.0. The suspension was then diluted (5 times) with PBS buffer. The diluted Escherichia coli cell suspension was incubated in the dark at 37° C. for 15 min in the presence of a photosensitizer (diketone compound) solution with a concentration of 60 mM, and then irradiated for 200 s under a 15 mW/cm^2 laser light (with a wavelength of 450 nm to 480 nm and in the final light dose of about 3 J cm^2), and after the irradiation the bacterial suspension was serially diluted (10^4 times) with PBS buffer. 100 μL of the diluted bacterial Escherichia coli cell was dispersed on a solid LB agar plate and incubated at 37° C. for 12 h to 16 h, and colonies formed were counted. In the meanwhile, a treated group in the dark and an untreated group in the dark were set; the inhibition rate was determined by dividing the number of colony forming units (cfu) killed in the treated group under light or the treated group in the dark by the number of colony forming units (cfu) killed in the untreated group in the dark.

[2] = tested on: 4T1 cells (breast cancer cells in mice); assay: Photodynamic therapy of tumors in mice (tumor size, tumor weight, B cells in tumor tissue); format: in vivo, BALB/C mice; conditions: 14 days after treatment
Experimental: 1. Photodynamic therapy experiments on tumors were carried out by using BJMU-204 as a photosensitizer and BALB/C mice as experimental animals. Modeling mode: BALB/C mice were divided into 5 groups in total, 11-12 mice in each group. 4T1 cells (breast cancer cells in mice) were resuscitated and subcultured to a better cell state for tumorigenesis inoculation. BALB/C mice were locally depilated and disinfected, and tumor cells were injected into the mouse mammary fat pad in situ. Tumors were formed within 7 to 10 days. […] [table] 2. Mice in each experimental group were subjected to blood collection for serum separation and necropsy, and tumors were taken out and measured to obtain their wet weights; tumor tissues were fixed, pathological examinations were performed, and H. E. staining was used to observe the changes of tumors of the mice under an optical microscope; blood routine indicators (including white blood cell count (WBC), red blood cell count (RBC), lymphocyte count (LY), platelet count (PLT) and many other blood routine indicators) and blood biochemical indicators (including routine blood biochemical indicators) were tested and analyzed in the Laboratory of Peking University Third Hospital. 3. Tumors were taken out of mice in each experimental group, a piece of tumor tissue about 1 cm*1 cm*0.5 cm in size was cut up and placed in a 10 ml EP tube. 5 ml of pancreatin was added for digestion. 30 min later, the digestion was ended. The digestion solution and the tumor tissue were sieved through a single cell sieve to obtain a tumor tissue single-cell suspension. B220 antibody (for flow cytometry) was added to the suspension and the resulting solution was stained with a PI staining solution; 30 min later, the staining was ended and the staining solution was removed; next, re-suspending was carried out with a PBS solution for test with a flow cytometry.

[3] = Phototoxicity to healthy mice (body weight, blood routine, blood biochemistry); format: in vivo, BALB/C mice
Experimental: BALB/C mice were divided into 2 groups in total, 9 mice in each group. The mice were fed adaptively for 2 days. Mice in a control group were fed normally, and mice in an experimental group were given photodynamic therapy by subcutaneous injection every other day under the irradiation of laser with a wavelength of 450 nm to 480 nm at a light intensity of 200 mW/cm^2.
Administration mode: as shown in the table below, the photosensitizer was dissolved in physiological saline and subcutaneously injected in mice in the experimental group, and the group receiving photodynamic therapy was irradiated with light immediately after the injection.
2. The mice in the experimental group and the control group were weighed every other day. At the end of the experiment, the mice were subjected to blood collection for serum separation and necropsy, and blood routine indicators (including WBC, RBC, LY, PLT and many other blood routine indicators) and blood biochemical indicators (including routine blood biochemical indicators) were tested and analyzed in the Laboratory of Peking University Third Hospital.

[4] = tested on: human cervical cancer Hela cells; assay: MTT cytotoxicity, Experimental Example 5; format: cell-based
Experimental: (1) Logarithmic phase cells were collected, the concentration of a cell suspension was adjusted, the cell suspension was added to a cell culture plate in a dose of 100 μL per well, and the cells were then added to a cell culture plate so that the density of the cells to be tested was adjusted to 1000-10000 wells (edge wells were filled with sterile PBS). […] Generally, the drug in 5 to 7 gradients was added in a dose of 100 μL per well, and 3 to 5 wells were set for each concentration of a drug. […] Cells in the experimental photosensitizer-light irradiation group were incubated for 15 min and then irradiated with light. […] After light irradiation, the cells were washed with PBS. […] After light irradiation, the cells were washed with PBS. […] If the drug could react with the MTT, centrifuging was carried out first, and then the culture solution was discarded and the cells were carefully washed twice or three times with PBS, and then the culture solution containing MTT was added. (6) The culture was terminated and the culture solution in the wells was carefully removed. (7) Dimethyl sulfoxide was added in a dose of 150 μL per well, and the plate was then shaken on a shaker at a low speed for 10 min to fully dissolve crystals. The absorbance at OD 490 nm of each well was measured with enzyme-linked immunoassay. […]

[5] = 3% subcutaneous injection + light 10 min, after 2 weeks

## CC(=O)C(C)=O [BJMU-204]
[1]; 450-480 nm laser, 15 mW/cm^2, 200 s, read-out: Inhibition rate under light
  inhibition at 60000 µM: 96%
[1]; in the dark, read-out: Inhibition rate in the dark
  inhibition at 60000 µM: 10.3%
[2]; 3% (p<0.001) and 0.5% (p<0.01) intratumoral + light vs control
  number of B cells in tumor tissues: increases significantly
[2]; 3% and 0.5% intratumoral + light, both p<0.001 vs control, better at high concentration
  weight changes of tumor tissues: obvious growth inhibition effect
[2]; 3% and 0.5% intratumoral + light, both p<0.001 vs control, more prominent at high concentration
  size changes of tumor tissues: controlled and decreased
[3]; 3% subcutaneous + light, 14 days after treatment
  body weight, experimental group vs control group: no significant difference
[3]; [5]
  Hematocrit (HCT): 45.22 ± 2.83
  Hemoglobin (HGB): 160.22 ± 12.07
  Mean corpuscular hemoglobin (MCH): 16.18 ± 0.34
  Mean corpuscular hemoglobin concentration (MCHC): 354.11 ± 8.19
  Mean corpuscular volume (MCV): 45.71 ± 0.6
  Mean platelet volume (MPV): 6.23 ± 0.37
  Platelet count (PLT): 290 ± 50.23
  Platelet distribution width (PDW): 14.84 ± 0.6
  Plateletocrit (PCT): 0.17 ± 0.03
  Red blood cell volume distribution width (RDW): 12.67 ± 0.54
  Red blood count (RBC): 9.9 ± 0.72
  White blood cell count (WBC): 6.56 ± 0.54
[3]; continuous treatment for 14 days at high concentration therapeutic doses
  liver, kidney and blood toxicity: will not cause liver, kidney and blood toxicity
[4]; given in the dark
  cytotoxicity to Hela cells: relatively low cytotoxicity
[4]; given under blue light, 450-480 nm, 110 mW/cm^2, 900 s
  cytotoxicity to Hela cells: relatively high cytotoxicity
